Active and inactive are the calls of the source. The rule behind the calls is not given here.
biological target: Serine/threonine-protein kinase mTOR (Homo sapiens) (UniProt P42345); test: mTOR FRB domain ligand binding – biophysical, NMR (AID 1648); details: NMR binding to FRB domain, chemical shift
Sequence (P42345 2015-2114): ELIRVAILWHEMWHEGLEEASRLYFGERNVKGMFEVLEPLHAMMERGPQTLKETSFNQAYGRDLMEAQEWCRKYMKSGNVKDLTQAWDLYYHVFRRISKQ

SMILES | Kd
NCCNC(=S)Nc1ccccc1 | > 4 mM (inactive)
Cc1cccc(C)c1NC(=O)CN1CCOCC1 | > 4 mM (inactive)
Cn1cnc2c1c(=O)[nH]c(=O)n2C | > 4 mM (inactive)
NCc1ccc2c(c1)OCCCO2 | > 4 mM (inactive)
COc1ccc(N2C(=O)CCC2=O)c(OC)c1 | > 4 mM (inactive)
O=C(NN1C(=O)C2C3C=CC(C3)C2C1=O)C1CC=CCC1 (configuration not stated) | > 4 mM (inactive)
Cn1cccc1C=C1C(=O)NC(=S)NC1=O | > 4 mM (inactive)
Clc1ccccc1OCCn1ccnc1 | > 4 mM (inactive)
Cc1ccc(-c2nn3c(C)nnc3s2)cc1N | > 4 mM (inactive)
Cc1cccc(CSc2nncc(=O)[nH]2)c1 | > 4 mM (inactive)
O=C(O)Cn1nnn(-c2ccccc2)c1=S | > 4 mM (inactive)
CC[C@H]1CN2CCC1C[C@@H]2[C@@H](O)c1ccnc2ccc(OC)cc12 (some centres not stated) | > 4 mM (inactive)
NC(=O)Cn1cnc(-c2ccc(F)cc2)c1 | > 4 mM (inactive)
Oc1ccc(-n2ccnc2)cc1 | > 4 mM (inactive)
Cn1c(O)c(C2=NC(=S)NC2=O)c2ccccc21 | > 4 mM (inactive)
COc1ccc(C)cc1-n1c(-c2ccncc2)n[nH]c1=S | > 4 mM (inactive)
Nc1ccc(C(=O)NCC2CCCO2)cc1 (configuration not stated) | > 4 mM (inactive)
O=c1[nH]cc(NCc2ccccc2)c(=O)[nH]1 | > 4 mM (inactive)
CCCCn1c(S(=O)(=O)O)nc2ccccc21 | > 4 mM (inactive)
CC(=O)NC(=S)Nc1ccc(C(C)=O)cc1 | > 4 mM (inactive)
COC(=O)C1Cc2ccccc2N1 (configuration not stated) | > 4 mM (inactive)
O=C(O)c1ccc2ccccc2n1 | > 4 mM (inactive)
Cc1cc(=O)n2ncn(Cc3ccccc3)c2n1 | > 4 mM (inactive)
O=C(O)c1ccc2[nH]c3c(c2c1)CSCC3 | > 4 mM (inactive)
Nc1ccc(S(=O)(=O)Nc2ccc(F)cc2F)cc1 | > 4 mM (inactive)

SMILES | Kd
CC(C)Nc1nc2n(c(=O)n1)CCN2C(C)C | > 4 mM (inactive)
CCOC(=O)CNC(=O)CSc1nnc(C)c(=O)[nH]1 | > 4 mM (inactive)
CC1=CC(=O)CC(C)(C)C1(O)/C=C/C(C)=C\C(=O)O (configuration not stated) | > 4 mM (inactive)
Nc1ccc(F)cc1F | > 4 mM (inactive)
COC(=O)[C@@H]1OC(=O)C2OC23[C@@]1(C)CCC1[C@]2(C)C(C[C@@H](O)[C@]13C)C(C)(C)[C@H](OC(C)=O)C[C@@H]2OC(C)=O (some centres not stated) | > 4 mM (inactive)
OC1CSc2ncnn2C1 (configuration not stated) | > 4 mM (inactive)
Cn1c(=O)c2cn3ncccc3c2n(C)c1=O | > 4 mM (inactive)
O=c1c(-c2ccco2)[n+]([O-])c2ccccc2n1O | > 4 mM (inactive)
C=C1[C@H]2CC[C@@]3(C)[C@H](c4ccoc4)OC(=O)C[C@]13O[C@H]1C[C@H](O)C(C)(C)[C@H](CC(=O)OC)[C@]12C | > 4 mM (inactive)
COc1cc(OC)c2c(=O)c(O)c(-c3ccc(OC)c(OC)c3)oc2c1 | > 4 mM (inactive)
O=C1Cn2c(nc3ccccc32)N1c1ccccc1F | > 4 mM (inactive)
O=C(O)c1ccc2c(c1)CCO2 | > 4 mM (inactive)
Fc1cc2nccnc2cc1N1CCSCC1 | > 4 mM (inactive)
Cc1cc(C(=O)NCc2cccnc2)cs1 | > 4 mM (inactive)
CCSc1nc2ccccc2[nH]1 | > 4 mM (inactive)
COc1ccc(Cc2nccc3cc(OC)c(OC)cc23)cc1OC | > 4 mM (inactive)
COc1cccc(N2CCNCC2)c1 | > 4 mM (inactive)
COc1ccc(S(=O)(=O)NCCO)cc1 | > 4 mM (inactive)
O=C(O)CCC1=C2c3ccccc3CCN2C(=O)CC1 | > 4 mM (inactive)
COc1cccc(N2CCN(C(=O)c3cccnc3)CC2)c1 | > 4 mM (inactive)
O=S1(=O)CCC(NCCO)C1 (configuration not stated) | > 4 mM (inactive)
COc1nc(C#N)c(N2CCOCC2)o1 | > 4 mM (inactive)
NC1=NC(=O)/C(=C/c2cccs2)S1 | > 4 mM (inactive)
COc1ccc(CC(=O)c2ccc(O)cc2O)cc1 | > 4 mM (inactive)
O=c1[nH]oc2ccccc12 | > 4 mM (inactive)

SMILES | Kd
c1cnc(N2CCNCC2)nc1 | > 4 mM (inactive)
COC1(C)CCC2OC2(C)CCC2C1CC2(C)C (configuration not stated) | > 4 mM (inactive)
CSc1cccc(NC(=O)c2c(Cl)cnn2C)c1 | > 4 mM (inactive)
Cc1oc(-c2ccccc2)cc1C(N)=O | > 4 mM (inactive)
Cn1c(CO)nc2cc(N)ccc21 | > 4 mM (inactive)
O=c1/c(=C/c2cccs2)sc2ncnn12 | > 4 mM (inactive)
Cc1noc(C)c1CSc1nc2ccccc2[nH]1 | > 4 mM (inactive)
O=C(Nc1ccc2c(c1)OCCO2)c1ccncc1 | > 4 mM (inactive)
Oc1ccc2c(c1)OCO2 | > 4 mM (inactive)
CC(Sc1ncn[nH]1)C(=O)O (configuration not stated) | > 4 mM (inactive)
CCSc1nc(N)c(NC(=O)c2ccco2)c(=O)[nH]1 | > 4 mM (inactive)
COC(=O)c1ccc(N2CCOCC2)nc1 | > 4 mM (inactive)
O=c1c2ccccc2[nH]c2ncccc12 | > 4 mM (inactive)
O=C(O)C1NCCc2ccccc21 (configuration not stated) | > 4 mM (inactive)
O=C(NCc1cccc(Cl)c1)c1ccco1 | > 4 mM (inactive)
O=C(Nc1cnccn1)c1cccs1 | > 4 mM (inactive)
Cc1cccc(NC(=O)c2ccccc2C(=O)O)c1 | > 4 mM (inactive)
CN1C2CC[C@@H]1CC(OC(=O)[C@H](CO)c1ccccc1)C2 (some centres not stated) | > 4 mM (inactive)
CC(C)CCn1cnc2c1c(=O)n(C)c(=O)n2C | > 4 mM (inactive)
O=C1N=C(N2CCOCC2)S/C1=C\c1cccnc1 | > 4 mM (inactive)
CC(=O)Nc1sccc1C(=O)NC(N)=O | > 4 mM (inactive)
COc1cccc(Oc2ccc(N)cn2)c1 | > 4 mM (inactive)
CN(C)Cc1c(N)cccc1O | > 4 mM (inactive)
CCOc1nc(C)ccc1-c1noc(-c2ccco2)n1 | > 4 mM (inactive)
Cc1c(CCO)c(=O)n2c([nH]c3ccccc32)c1C#N | > 4 mM (inactive)

SMILES | Kd
Cc1cc(NC(=O)NCCCSc2nncn2C)no1 | > 4 mM (inactive)
NC(=O)C1CCN(C(=S)c2ccccc2)CC1 | > 4 mM (inactive)
O=C1CCCC(=O)N1Cc1ccco1 | > 4 mM (inactive)
Cc1noc(C)c1C(=O)N1CCC(Cc2ccccc2)CC1 | > 4 mM (inactive)
COc1cc2c(cc1O)CCNC2C (configuration not stated) | > 4 mM (inactive)
O=C(O)c1ccc(-c2cccs2)cc1 | > 4 mM (inactive)
Cc1ccc(CN2CCNC(=O)C2CC(=O)O)o1 (configuration not stated) | > 4 mM (inactive)
C/C1=C/CC(C)(C)/C=C/C/C(C)=C/CC1 | > 4 mM (inactive)
CC(=O)NS(=O)(=O)c1ccc(C)cc1 | > 4 mM (inactive)
NCc1csc(-c2cccs2)n1 | > 4 mM (inactive)
Cc1nc(NCc2ccco2)nc2c1C(=O)CC(C)C2 (configuration not stated) | > 4 mM (inactive)
Cc1ncc(C(=O)O)c(-c2ccccc2)n1 | > 4 mM (inactive)
Nc1ccc(O)cn1 | > 4 mM (inactive)
COc1c(O)cc2c(-c3ccccc3)cc(=O)oc2c1OC | > 4 mM (inactive)
N#Cc1cc2c(nc1SCc1ccncc1)CCC2 | > 4 mM (inactive)
COc1ccc2c(c1)C(NC(C)=O)C(=O)N2C (configuration not stated) | > 4 mM (inactive)
O=C(O)C(Cc1cnc[nH]1)N1C(=O)c2ccccc2C1=O (configuration not stated) | > 4 mM (inactive)
CCOC(=O)C1=C(O)CCN(C)C1 | > 4 mM (inactive)
CN(C)c1ccc2c(=O)[nH][nH]c(=O)c2c1 | > 4 mM (inactive)
NC(=O)c1cccc(N2C(=O)C=CC2=O)c1 | > 4 mM (inactive)
CCC(=O)Nc1ccccc1NC(C)=O | > 4 mM (inactive)
OCC1CCCCCN1 (configuration not stated) | > 4 mM (inactive)
Cc1cc(C(=O)Nc2nnc(C(F)(F)F)s2)no1 | > 4 mM (inactive)
Cc1cc(SCC(=O)Nc2nccs2)nc(=O)[nH]1 | > 4 mM (inactive)
Nc1cccc2nonc12 | > 4 mM (inactive)

SMILES | Kd
CNC(=O)c1ccc([N+](=O)[O-])cc1Cl | > 4 mM (inactive)
CC(C)c1c(O)ccc2c1CCC1[C@@](C)(CO)CCC[C@]21C (some centres not stated) | > 4 mM (inactive)
CC(O)c1nc2ccccc2[nH]1 (configuration not stated) | > 4 mM (inactive)
Cc1cccc(NC(=O)Nc2cc(C)on2)c1 | > 4 mM (inactive)
CC1CC[C@]2(NC1)O[C@H]1CC3C4CC[C@H]5C[C@@H](O)CC[C@]5(C)C4CC[C@]3(C)[C@H]1[C@@H]2C (some centres not stated) | > 4 mM (inactive)
CC1=CCc2c(cc3oc(C)cc(=O)c3c2O)OC1 | > 4 mM (inactive)
C1CCN2C[C@@H]3C[C@H](CN4CCCC[C@@H]34)[C@H]2C1 | > 4 mM (inactive)
O=C1C2C3C=CC(O3)C2C(=O)N1c1ccccc1 (configuration not stated) | > 4 mM (inactive)
Cn1c(SCC(N)=O)nnc1-c1c[nH]c2ccccc12 | > 4 mM (inactive)
O=C(CSc1ncccn1)NCc1ccco1 | > 4 mM (inactive)
Cc1ccc(C(=O)Nc2nnc(-c3ccncc3)s2)o1 | > 4 mM (inactive)
O=C(c1cnsn1)N1CCN(c2ccccn2)CC1 | > 4 mM (inactive)
O=C(Nc1ccon1)c1ccccc1Cl | > 4 mM (inactive)
COc1ccc(-c2c(O)c3c(OC)c4c(cc3oc2=O)OC(C)(C)CC4)cc1 | > 4 mM (inactive)
O=C(O)C1(O)C[C@@H](O)C(O)[C@H](O)C1 (some centres not stated) | > 4 mM (inactive)
NC(=O)NC1C=CS(=O)(=O)C1 (configuration not stated) | > 4 mM (inactive)
NS(=O)(=O)c1ccc(NC(=O)/C=C\C(=O)O)cc1 | > 4 mM (inactive)
COc1ccc2c(c1OC)C(=O)O[C@H]2[C@H]1c2cc3c(cc2CCN1C)OCO3 | > 4 mM (inactive)
CC1(C)CC23C(=O)CCC(O)C2(C)CCC13 (configuration not stated) | > 4 mM (inactive)
CC(=O)O[C@H]1C[C@@]2(C)[C@@H](C[C@@H](O)C3[C@]2(C)CC[C@H]2[C@H](C)[C@H](O)CC[C@]32C)/C1=C(/CCC=C(C)C)C(=O)O (some centres not stated) | > 4 mM (inactive)
COc1ccc2[nH]cc(CN(C)C)c2c1 | > 4 mM (inactive)
COc1ccc2c(c1)OC[C@@H](Cc1ccc(OC)c(OC)c1)[C@H]2O | > 4 mM (inactive)

— PubChem BioAssay AID1648 (Sanford-Burnham Center for Chemical Genomics, 2009)
